Data: patent publication US9233933B2, “4,4-disubstituted-1,4-dihydropyrimidines and the use thereof as medicaments for the treatment of hepatitis B” (priority 2012, dated 2016)
pEC50: −log10 of the molar value. Where a name gives a salt, the structure may show the parent alone. Read-outs that look alike come from different tables or passages of the source.

Columns and labels:
[1] = Cytotoxicity in HepG2 cells incubated 4 days, Resazurin assay; settings: human, HepG2 4 days CC50, HepG2 cells
[2] = Cytotoxicity in HepG2 cells using CellTiter-Blue, same incubation period as HepG2.2.15 assay; assay type: cell-based; settings: human
Description: Cytotoxicity of the compounds was tested in HepG2 cells using CellTiter-Blue, with the same incubation period and dose range as in the HepG2.2.15 assay.

HBV [3] = assay: anti-HBV activity in stable transfected HepG2.2.15 cell line, HBV DNA from secreted virions by realtime PCR; assay type: cell-based, Hepatitis B virus; settings: read-out: HBV-HepG2 2.15 EC50
HBV [4] = assay: anti HBV activity in HepG2.117 cell line (Tet-off, inducibly HBV producing), intracellular HBV DNA by realtime PCR; assay type: cell-based, Hepatitis B virus; settings: read-out: HepG2 117 EC50
in vitro = settings: human, HepG2 4 days CC50
[5] = HepG2 cells, 6 days, CellTiter-Blue, read-out: HepG2 6 days CC50
[6] = HepG2.2.15 cells, 6 days of treatment, secreted virion HBV DNA
[7] = Hepatitis B virus, HepG2.117, 72 h, HepG2.117 cells, 3 days of treatment, intracellular HBV DNA
[8] = Hepatitis B virus, HepG2.2.15, 144 h, HepG2.2.15 cells, 6 days of treatment, secreted virion HBV DNA
[9] = HepG2.117 cells, 3 days of treatment, intracellular HBV DNA

Structure (SMILES)	CC50 at 4 days [1]	CC50 at 6 days [2, 5]	pEC50 (HBV [4]; [7])	pEC50 (HBV [3]; [8])	CC50 at 4 days (in vitro)	also measured
CCOC(=O)C1=C(CN2CCOCC2)NC(c2ccccn2)=NC1(C)c1ccc(F)cc1 (racemic) [Compound 4]	> 25 µM	51.1 µM	6.18	–	–	pEC50 (HBV [3]; [6]): 5.72
N#CC1=C(CN2CCOCC2)NC(c2ccccn2)=NC12CCCc1cc(F)ccc12 (racemic) [Compound 60]	> 25 µM	> 100 µM	5.60	5.55	–	–
COC(=O)C1=C(CN2CCOCC2)NC(c2ccccn2)=NC12CCc1c(F)cccc12 (racemic) [Compound 66]	–	–	6.77	6.68	> 25 µM	CC50 at 6 days ([2]; HepG2 6 days CC50): 89.3 µM
COC(=O)C1=C(C)NC(c2nccs2)=NC12C(F)=C(F)c1cc(F)ccc12 (racemic) [Compound 166]	–	–	4.85	6.62	> 25 µM	–
COC(=O)C1=C(C)NC(c2nccs2)=NC12C(F)=Cc1c2ccc(F)c1F (racemic) [Compound 174]	–	–	4.87	–	> 25 µM	–
COC(=O)C1=C(CN2CCOCC2)NC(c2ccccn2)=N[C@@]12c1ccc(F)cc1C[C@H]2F (racemic) [Compound 175]	–	–	6.84	> 6.71	> 25 µM	–
N#CC1=C(CN2CCOCC2)NC(c2ccccn2)=NC12CCCc1cc(F)ccc12 (single isomer, unassigned) [Compound 60a]	> 100 µM	> 100 µM	–	–	–	pEC50 (HBV [3]; [6]): < 4.00; pEC50 (HBV [4]; [9]): < 4.00
COC(=O)C1=C(CN2CCOCC2)NC(c2ccccn2)=NC12CCc1c(F)cccc12 (single isomer, unassigned) [Compound 66a]	–	–	–	–	> 100 µM	CC50 at 6 days ([2]; HepG2 6 days CC50): > 100 µM; pEC50 (HBV [3]; [6]): > 6.41; pEC50 (HBV [4]; [9]): 7.18
COC(=O)C1=C(CN2CCOCC2)NC(c2ccccn2)=NC12CCc1ccc(F)cc12 (single isomer, unassigned) [Compound 96a]	–	–	–	–	> 100 µM	CC50 at 6 days ([2]; HepG2 6 days CC50): > 100 µM; pEC50 (HBV [3]; [6]): 6.19; pEC50 (HBV [4]; [9]): 6.52
COC(=O)C1=C(C)NC(c2nccs2)=NC12C(F)=C(F)c1cc(F)ccc12 (single isomer, unassigned) [Compound 166a]	–	–	< 4.60	–	> 25 µM	pEC50 (HBV [3]; [6]): < 4.30
COC(=O)C1=C(CN2CCOCC2)NC(c2ccccn2)=NC12c1ccc(F)cc1C(F)C2(F)F (single isomer, unassigned) [Compound 168A]	–	–	–	5.02	> 25 µM	pEC50 (HBV [4]; [9]): 5.45
COC(=O)C1=C(C)NC(c2nccs2)=NC12C(F)=Cc1c2ccc(F)c1F (single isomer, unassigned) [Compound 174a]	–	–	–	–	> 25 µM	pEC50 (HBV [4]; [9]): 5.05
COC(=O)C1=C(CN2CCOCC2)NC(c2ccccn2)=NC12CC(=O)c1cc(F)ccc12 (stereo not drawn) [139 •TFA]	–	–	6.15	6.00	> 25 µM	–
COC(=O)C1=C(CN2CCOCC2)NC(c2ccccn2)=NC1(C)c1ccc(F)cc1 (stereo not drawn) [Compound 2]	> 50 µM	> 100 µM	6.60	6.17	–	–
CCOC(=O)C1=C(CN2CCSCC2)NC(c2ccccn2)=NC1(C)c1ccc(F)cc1 (stereo not drawn) [Compound 8]	> 50 µM	54.3 µM	5.48	4.83	–	–
CCOC(=O)C1=C(C(F)(F)F)NC(c2ccccn2)=NC1(C)c1ccc(F)cc1 (stereo not drawn) [Compound 10]	> 10 µM	> 10 µM	< 5.00	< 5.00	–	–
COC(=O)C1=C(CN2CCOCC2)NC(c2ccccn2)=NC1(C)c1ccccc1Cl (stereo not drawn) [Compound 13]	> 100 µM	> 100 µM	5.41	5.03	–	–
CCOC(=O)C1=C(C)NC(c2ccccn2)=NC1(C)c1ccc(F)c(Cl)c1 (stereo not drawn) [Compound 17]	> 25 µM	39.9 µM	4.68	< 4.30	–	–
CCOC(=O)C1=C(CN2CCOCC2)NC(c2ccccn2)=NC1(C)c1ccc(F)c(Cl)c1 (stereo not drawn) [Compound 18]	> 50 µM	36.5 µM	5.80	5.41	–	–

Structure (SMILES)	CC50 at 4 days [1]	CC50 at 6 days [2, 5]	pEC50 (HBV [4]; [7])	pEC50 (HBV [3]; [8])	CC50 at 4 days (in vitro)	also measured
CCOC(=O)C1=C(CN2CCOCC2)NC(c2ncc(F)cc2F)=NC1(C)c1ccc(F)cc1 (stereo not drawn) [Compound 24]	> 25 µM	37.9 µM	6.80	6.50	–	–
COC(=O)C1=C(CN2CCOCC2)NC(c2ncc(F)cc2F)=NC1(C)c1cc(F)cc(Cl)c1 (stereo not drawn) [Compound 27]	> 25 µM	> 100 µM	6.20	5.74	–	–
COC(=O)C1=C(CN2CCOCC2)NC(c2ccccn2)=NC1(C)c1cc(F)cc(Cl)c1 (stereo not drawn) [Compound 29]	> 25 µM	47.4 µM	5.52	5.20	–	–
COC(=O)C1=C(CN2CCOCC2)NC(c2ccccn2)=NC1(C)c1cccc(F)c1 (stereo not drawn) [Compound 30]	> 25 µM	> 100 µM	6.54	6.03	–	–
COC(=O)C1=C(C)NC(c2ccccn2)=NC1(C)c1cccc(F)c1 (stereo not drawn) [Compound 31]	> 50 µM	> 100 µM	–	–	–	pEC50 (HBV [3]; Hepatitis B virus, HepG2.2.15, 144 h): 4.14; pEC50 (HBV [4]; Hepatitis B virus, HepG2.117, 72 h): 4.39
CCOC(=O)C1=C(CN2CCOCC2)NC(c2ccccn2)=NC1(C)c1ccc(F)cc1Cl (stereo not drawn) [Compound 41]	> 25 µM	> 50 µM	5.35	5.13	–	–
CCOC(=O)C1=C(CN2CCOCC2)NC(c2ccccn2)=NC1(C)c1ccc(F)cc1F (stereo not drawn) [Compound 42]	> 50 µM	57.7 µM	5.89	5.51	–	–
CC1(C)CCC2(N=C(c3ccccn3)NC(CN3CCOCC3)=C2C#N)c2ccccc21 (stereo not drawn) [Compound 57]	> 25 µM	87.4 µM	< 4.60	< 4.00	–	–
N#CC1=C(CN2CCOCC2)NC(c2ccccn2)=NC12CCCc1ccc(F)cc12 (stereo not drawn) [Compound 58]	> 25 µM	> 100 µM	< 4.60	< 4.00	–	–
N#CC1=C(CN2CCOCC2)NC(c2ccccn2)=NC12CCc1ccccc12 (stereo not drawn) [Compound 76]	> 100 µM	> 100 µM	5.44	5.07	–	–
COC(=O)C1=C(C)NC(c2ncc(F)cc2F)=NC12CCCc1cc(F)ccc12 (stereo not drawn) [Compound 80]	–	–	4.60	–	> 50 µM	CC50 at 6 days ([2]; HepG2 6 days CC50): 51.1 µM
COC(=O)C1=C(C)NC(c2ncc(F)cc2F)=NC12C(=O)Nc1cc(F)ccc12 (stereo not drawn) [Compound 123]	–	–	< 4.60	< 4.00	> 25 µM	–
COC(=O)C1=C(C)NC(c2ncc(F)cc2F)=NC1(C)c1ccc(F)cc1 (stereo not drawn) [Compound 128]	> 50 µM	63.8 µM	5.61	5.04	–	–
COC(=O)C1=C(CN2CCOCC2)NC(c2ccccn2)=NC12CCc1cc(F)ccc12 (stereo not drawn) [Compound 143]	–	–	6.65	–	> 25 µM	–
COC(=O)C1=C(CN2CCOCC2)NC(c2ccccn2)=NC12CC(O)c1cc(F)ccc12 (stereo not drawn) [Compound 144]	–	–	5.31	–	> 10 µM	–
COC(=O)C1=C(CN2CCOCC2)NC(c2ccccn2)=NC12C=Cc1cc(F)ccc12 (stereo not drawn) [Compound 145]	–	–	6.21	6.44	> 25 µM	–
COC(=O)C1=C(CN2CCOCC2)NC(c2ccccn2)=NC12CC(C)c1cc(F)ccc12 (stereo not drawn) [Compound 146]	–	–	5.58	5.87	> 25 µM	–
COC(=O)C1=C(CN2CCOCC2)NC(c2ccccn2)=NC12C(F)=C(F)c1cc(F)ccc12 (stereo not drawn) [Compound 169]	–	–	6.86	–	> 25 µM	–
